Data as given in patent US6506766B1 (Abbott Laboratories, priority 1998, dated 2003).
Where two headings read alike, the source gives them in different places.

Key:
[1] = target: T1, human glucocorticoid receptor-α [GRX] isoform (Homo sapiens, UniProt P04150); assay: Radioligand binding with human glucocorticoid receptor cytosol ([3H]-dexamethasone competition)
T1 construct: host or cells: insect SF21 cells (baculovirus)
T1 sequence (P04150 1-777): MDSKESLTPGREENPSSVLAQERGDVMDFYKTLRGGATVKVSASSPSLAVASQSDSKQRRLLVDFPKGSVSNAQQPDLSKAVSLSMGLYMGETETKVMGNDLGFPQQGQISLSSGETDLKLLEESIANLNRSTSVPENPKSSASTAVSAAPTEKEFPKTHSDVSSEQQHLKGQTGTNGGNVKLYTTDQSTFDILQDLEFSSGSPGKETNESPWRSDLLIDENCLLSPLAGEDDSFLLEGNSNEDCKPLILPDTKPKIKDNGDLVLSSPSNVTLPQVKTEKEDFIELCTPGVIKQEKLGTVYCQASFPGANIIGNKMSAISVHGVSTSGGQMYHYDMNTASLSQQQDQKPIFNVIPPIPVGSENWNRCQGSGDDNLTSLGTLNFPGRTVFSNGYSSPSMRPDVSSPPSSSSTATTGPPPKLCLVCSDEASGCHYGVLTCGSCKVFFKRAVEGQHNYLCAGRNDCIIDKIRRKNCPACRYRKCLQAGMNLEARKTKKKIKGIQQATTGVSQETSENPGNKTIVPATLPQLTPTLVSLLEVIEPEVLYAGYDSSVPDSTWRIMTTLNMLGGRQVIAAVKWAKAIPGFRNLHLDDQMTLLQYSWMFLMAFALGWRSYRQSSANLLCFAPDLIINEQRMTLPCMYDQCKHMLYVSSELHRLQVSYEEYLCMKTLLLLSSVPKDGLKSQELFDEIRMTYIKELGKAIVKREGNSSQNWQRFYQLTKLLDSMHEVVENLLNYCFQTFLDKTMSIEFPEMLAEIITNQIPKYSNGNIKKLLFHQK

[2] = target: T2, human progesterone receptor-A [PRA] isoform (Homo sapiens, UniProt P06401); assay: Radioligand binding with human progesterone receptor cytosol ([3H]-progesterone competition); settings: PRA cytosol expressed in insect SF21 cells, [3H]Prog ~0.8 nM, 4° C. overnight; Ki by Cheng-Prusoff, KL ~4.5 nM; read-out: Ki (nM) PR
T2 construct: host or cells: insect SF21 cells (baculovirus)
T2 sequence (P06401 1-769 isoform P06401-2): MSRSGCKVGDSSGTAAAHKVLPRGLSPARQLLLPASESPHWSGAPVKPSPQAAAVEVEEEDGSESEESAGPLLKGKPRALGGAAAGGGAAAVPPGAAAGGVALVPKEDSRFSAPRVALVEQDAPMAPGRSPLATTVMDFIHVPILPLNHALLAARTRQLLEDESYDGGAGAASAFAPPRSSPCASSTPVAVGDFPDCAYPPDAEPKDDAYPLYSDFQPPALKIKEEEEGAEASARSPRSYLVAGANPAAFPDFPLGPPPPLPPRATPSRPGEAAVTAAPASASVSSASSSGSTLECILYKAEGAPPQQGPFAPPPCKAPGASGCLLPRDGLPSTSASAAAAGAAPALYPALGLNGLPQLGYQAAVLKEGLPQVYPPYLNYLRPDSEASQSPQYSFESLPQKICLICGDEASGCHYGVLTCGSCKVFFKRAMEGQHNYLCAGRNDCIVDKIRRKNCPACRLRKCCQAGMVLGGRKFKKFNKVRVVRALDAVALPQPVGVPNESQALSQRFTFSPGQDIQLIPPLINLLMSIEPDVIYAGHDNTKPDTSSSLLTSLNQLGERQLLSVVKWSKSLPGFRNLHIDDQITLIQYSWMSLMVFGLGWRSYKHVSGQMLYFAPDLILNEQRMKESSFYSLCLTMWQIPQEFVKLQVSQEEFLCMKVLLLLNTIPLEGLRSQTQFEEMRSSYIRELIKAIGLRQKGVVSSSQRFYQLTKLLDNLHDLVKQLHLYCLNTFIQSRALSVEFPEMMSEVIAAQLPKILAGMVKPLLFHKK

[3] = GRX cytosol expressed in insect SF21 cells, [3H]-Dex ~0.9 nM, 4° C. overnight, Ki by Cheng-Prusoff, KL ~[…], read-out: Ki (nM) GR

| Structure (SMILES) | Ki [1, 3] [nM] | Ki [2] [nM] | Ki ([1]; Ki (nM) GR) [nM] |
| --- | --- | --- | --- |
| COc1cccc2c1-c1ccc3c(c1C(c1cccc(CCOC(=O)N(C)C)c1)O2)C(C)=CC(C)(C)N3 (stereo not drawn) [Example 317, 2,5-Dihydro-10-methoxy-5-(3-(2-(N,N-dimethylaminocarbonyloxy)ethyl)phenyl)-2,2,4-trimethyl-1H-[1]benzopyrano[3,4-f]quinoline] | 6.5 | ≥ 10000 | – |
| COc1cccc2c1-c1ccc3c(c1C(/C=C/c1ccccc1)O2)C(C)=CC(C)(C)N3 (stereo not drawn) [Example 321, trans 2,5-Dihydro-10-methoxy-5-(2-phenylethenyl)-2,2,4-trimethyl-1H-[1]benzopyrano[3,4-f]quinoline] | 44 | 2880 | – |
| COc1cccc2c1-c1ccc3c(c1C(C#Cc1ccccc1)O2)C(C)=CC(C)(C)N3 (stereo not drawn) [Example 322, 2,5-Dihydro-10-methoxy-5-(2-phenylethynyl)-2,2,4-trimethyl-1H-[1]benzopyrano[3,4-f]quinoline] | 107 | 2300 | – |
| COc1cccc2c1-c1ccc3c(c1C(/C=C\c1ccccc1)O2)C(C)=CC(C)(C)N3 (stereo not drawn) [Example 323, cis 2,5-Dihydro-10-methoxy-5-(2-phenylethenyl)-2,2,4-trimethyl-1H-[1]benzopyrano[3,4-f]quinoline] | 428 | ≥ 10000 | – |
| COc1cccc2c1-c1ccc3c(c1C(C1=CCCCC1)O2)C(C)=CC(C)(C)N3 (stereo not drawn) [Example 325, trans 2,5-Dihydro-10-methoxy-5-(1-cyclohexenyl)-2,2,4-trimethyl-1H-[1]benzopyrano[3,4-f]quinoline] | – | ≥ 10000 | 24 |
| C=CCC1Oc2cccc(-c3ccco3)c2-c2ccc3c(c21)C(C)=CC(C)(C)N3 (stereo not drawn) [Example 326, 2,5-Dihydro-10-(2-furanyl)-5-(3-propenyl)-2,2,4-trimethyl-1H-[1]benzopyrano[3,4-f]quinoline] | 228 | ≥ 10000 | – |
| C=CCC1Oc2cccc(COC)c2-c2ccc3c(c21)C(C)=CC(C)(C)N3 (stereo not drawn) [Example 332, 2,5-Dihydro-10-methoxymethyl-5-(3-propenyl)-2,2,4-trimethyl-1H-[1]benzopyrano[3,4-f]quinoline] | 18 | ≥ 10000 | – |
| C=Cc1cccc2c1-c1ccc3c(c1C(c1ccccc1)O2)C(C)=CC(C)(C)N3 (stereo not drawn) [Example 333, 2,5-Dihydro-10-ethenyl-5-phenyl-2,2,4-trimethyl-1H-[1]benzopyrano[3,4-f]quinoline] | 5.6 | 3670 | – |
| CC1=CC(C)(C)Nc2ccc3c(c21)C(c1ccccc1)Oc1cccc(C=O)c1-3 (stereo not drawn) [Example 337, 2,5-Dihydro-10-formyl-5-phenyl-2,2,4-trimethyl-1H-[1]benzopyrano[3,4-f]quinoline] | 3.3 | 702 | – |
| C=Cc1cccc2c1-c1ccc3c(c1C(C1C=C(C)CCC1)O2)C(C)=CC(C)(C)N3 (stereo not drawn) [Example 341] | 2.5 | ≥ 10000 | – |
| C=CCC1Oc2cccc(SC)c2-c2ccc3c(c21)C(C)=CC(C)(C)N3 (stereo not drawn) [Example 342, 2,5-Dihydro-5-(3-propenyl)-10-methylthio-2,2,4-trimethyl-1H-[1]benzopyrano[3,4-f]quinoline] | 2590 | ≥ 10000 | – |
| C=C1CC(C)(C)Nc2ccc3c(c21)C(c1ccccc1)Oc1cccc(OC(F)(F)Br)c1-3 (stereo not drawn) [Example 347, 10-(Bromodifluoromethoxy)-5-phenyl-2,2-dimethyl-4-methylene-2,3,4,5-tetrahydro-1H-chromeno[3,4-f]quinoline] | 128 | ≥ 10000 | – |
| COc1cccc2c1-c1ccc3c(c1C(=Cc1cc(C)no1)O2)C(C)=CC(C)(C)N3 [Example 350, 10-Methoxy-5-(3-methylisoxazol-5-yl)methyidene-2,5-dihydro-5-phenyl-2,2,4-trimethyl-1H-[1]benzopyrano[3,4-f]quinoline] | 6.22 | ≥ 10000 | – |
| CCC(C)=C1Oc2cccc(OC)c2-c2ccc3c(c21)C(C)=CC(C)(C)N3 [Example 355, 10-Methoxy-5-(1-methylpropylidene)-2,5-dihydro-5-phenyl-2,2,4-trimethyl-1H-[1]benzopyrano[3,4-f]quinoline] | 27 | 4280 | – |

More lines, main results first:

| Ki [1, 3] [nM] | Ki [2] [nM] | Structure (SMILES) | Ki ([1]; Ki (nM) GR) [nM] |
| --- | --- | --- | --- |
| 553 | ≥ 10000 | COc1cccc2c1-c1ccc3c(c1C(c1cccc(CCN(C)C)c1)O2)C(C)=CC(C)(C)N3 (stereo not drawn) [Example 318, 2,5-Dihydro-10-methoxy-5-(3-(2-(N,N-dimethylamino)ethyl)phenyl)-2,2,4-trimethyl-1H-[1]benzopyrano[3,4-f]quinoline] | – |
| 16 | 492 | COc1cccc2c1-c1ccc3c(c1C(C1CC1)O2)C(C)=CC(C)(C)N3 (stereo not drawn) [Example 319, 2,5-Dihydro-10-methoxy-5-cyclopropyl-2,2,4-trimethyl-1H-[1]benzopyrano[3,4-f]quinoline] | – |
| 9.3 | 1460 | C=CCC1Oc2cccc(C#N)c2-c2ccc3c(c21)C(C)=CC(C)(C)N3 (stereo not drawn) [Example 327, 2,5-Dihydro-10-cyano-5-(3-propenyl)-2,2,4-trimethyl-1H-[1]benzopyrano[3,4-f]quinoline] | – |
| 142 | ≥ 10000 | C=CCC1Oc2cccc(CN)c2-c2ccc3c(c21)C(C)=CC(C)(C)N3 (stereo not drawn) [Example 331, 2,5-Dihydro-10-aminomethyl-5-(3-propenyl)-2,2,4-trimethyl-1H-[1]benzopyrano[3,4-f]quinolione] | – |
| 9.5 | ≥ 10000 | C#Cc1cccc2c1-c1ccc3c(c1C(c1ccccc1)O2)C(C)=CC(C)(C)N3 (stereo not drawn) [Example 334, 2,5-Dihydro-10-ethynyl-5-phenyl-2,2,4-trimethyl-1H-[1]benzopyrano[3,4-f]quinoline] | – |
| 9.5 | 1560 | CC1=CC(C)(C)Nc2ccc3c(c21)C(c1ccccc1)Oc1cccc(CO)c1-3 (stereo not drawn) [Example 336, 2,5-Dihydro-10-(hydroxymethyl)-5-phenyl-2,2,4-trimethyl-1H-[1]benzopyrano[3,4-f]quinoline] | – |
| 61 | ≥ 10000 | COCc1cccc2c1-c1ccc3c(c1C(c1ccccc1)O2)C(C)=CC(C)(C)N3 (stereo not drawn) [Example 338, 2,5-Dihydro-10-(methoxymethyl)-5-phenyl-2,2,4-trimethyl-1H-[1]benzopyrano[3,4-f]quinoline] | – |
| 1.8 | 254 | C=Cc1cccc2c1-c1ccc3c(c1C(C1C=CCCC1)O2)C(C)=CC(C)(C)N3 (stereo not drawn) [Example 340] | – |
| 5.2 | 4700 | C=CCC1Oc2cccc(SC)c2-c2ccc3c(c21)C(C)=CC(C)(C)N3 (stereo not drawn) [Example 343, 2,5-Dihydro-5-(3-propenyl)-10-methylthio-2,2,4-trimethyl-1H-[1]benzopyrano[3,4-f]quinoline] | – |
| 8.7 | 3000 | CC1=CC(C)(C)Nc2ccc3c(c21)C(c1ccccc1)Oc1cccc(OC(F)F)c1-3 (stereo not drawn) [Example 345, 10-(Difluoromethoxy)-2,5-dihydro-5-phenyl-2,2,4-trimethyl-1H-[1]benzopyrano[3,4-f]quinoline] | – |
| 44 | 5110 | CC1=CC(C)(C)Nc2ccc3c(c21)C(c1ccccc1)Oc1cccc(OC(F)(F)Br)c1-3 (stereo not drawn) [Example 346, 10-(Bromodifluoromethoxy)-2,5-dihydro-5-phenyl-2,2,4-trimethyl-1H-[1]benzopyrano[3,4-f]quinoline] | – |
| 0.89 | 171 | COc1c(O)ccc2c1-c1ccc3c(c1C(Cc1ccccc1F)O2)C(C)=CC(C)(C)N3 (stereo not drawn) [Example 348, 2,5-Dihydro-9-hydroxy-10-methoxy-2,2,4-trimethyl-5-((2-fluorophenyl)methyl)-1H-[1]benzopyranol[3,4-f]quinoline] | – |
| 58 | ≥ 10000 | COc1cccc2c1-c1ccc3c(c1C(=Cc1cccc(Cl)n1)O2)C(C)=CC(C)(C)N3 [Example 352] | – |
